The assay deals with PARP7 (Homo sapiens (Human), UniProt Q7Z3E1). Kind of assay: Enzymatic assay for inhibition of PARP7: TR-FRET displacement of biotinylated Probe A from the TIPARP active site. Format: binding. To be noted: Table A-1. Summed up:
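TR-FRET, ex 320 nm / em 615 and 665 nm. Signal ratio reflects complex formation.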
Background: In TR-FRET formats the signal depends on donor and acceptor labels being close together.

What is called IC50 is the concentration that gives 50% inhibition.

The structures appear in SMILES notation.

PARP7, sequence (Q7Z3E1 whole entry): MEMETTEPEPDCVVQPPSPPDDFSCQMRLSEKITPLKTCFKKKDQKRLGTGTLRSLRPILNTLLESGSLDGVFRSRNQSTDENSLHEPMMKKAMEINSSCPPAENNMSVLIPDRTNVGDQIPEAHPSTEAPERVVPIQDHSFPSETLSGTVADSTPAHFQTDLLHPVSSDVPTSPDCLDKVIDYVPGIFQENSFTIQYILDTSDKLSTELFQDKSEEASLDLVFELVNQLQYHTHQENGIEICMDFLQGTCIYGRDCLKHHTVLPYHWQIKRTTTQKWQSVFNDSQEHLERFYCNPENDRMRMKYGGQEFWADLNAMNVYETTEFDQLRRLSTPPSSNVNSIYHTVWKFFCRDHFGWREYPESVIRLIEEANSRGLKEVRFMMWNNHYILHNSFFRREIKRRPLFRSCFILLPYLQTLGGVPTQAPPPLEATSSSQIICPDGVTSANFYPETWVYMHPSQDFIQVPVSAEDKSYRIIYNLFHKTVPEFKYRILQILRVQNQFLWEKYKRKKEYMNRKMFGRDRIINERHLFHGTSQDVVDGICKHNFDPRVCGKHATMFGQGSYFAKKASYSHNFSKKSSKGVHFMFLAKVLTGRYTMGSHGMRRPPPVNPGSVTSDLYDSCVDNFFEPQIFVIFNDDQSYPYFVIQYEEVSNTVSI

As for `O=C1OCCC1Oc1cccc2c1CN(c1cn[nH]c(=O)c1C(F)(F)F)C2` (stereo not shown) [Example 202, 5-(4-((2-Oxotetrahydrofuran-3-yl)oxy)isoindolin-2-yl)-4-(trifluoromethyl)pyridazin-3(2H)-one], the IC50 is less than 100 nM.

For `O=c1[nH]ncc(N2Cc3cccc(OC4CCOC4)c3C2)c1C(F)(F)F` (stereo not shown) [Example 203, 5-(4-((Tetrahydrofuran-3-yl)oxy)isoindolin-2-yl)-4-(trifluoromethyl)pyridazin-3(2H)-one], the IC50 is less than 100 nM.

For `NC(=O)COc1cccc2c1CN(c1cn[nH]c(=O)c1C(F)(F)F)C2` [Example 204, 2-((2-(6-Oxo-5-(trifluoromethyl)-1,6-dihydropyridazin-4-yl)isoindolin-4-yl)oxy)acetamide], the IC50 lay in the range of 100 to 1000 nM.

Turning to `Nc1cccc2c1CN(c1cn[nH]c(=O)c1C(F)(F)F)C2` [Example 205, 5-(4-Aminoisoindolin-2-yl)-4-(trifluoromethyl)pyridazin-3(2H)-one], the 50% inhibitory concentration (IC50) was less than 100 nM.

As for `N#Cc1cccc2c1CN(c1cn[nH]c(=O)c1C(F)(F)F)C2` [Example 206, 2-(6-Oxo-5-(trifluoromethyl)-1,6-dihydropyridazin-4-yl)isoindoline-4-carbonitrile], the IC50 is less than 100 nM.

The molecule `COCC1c2ccccc2CN1c1cn[nH]c(=O)c1Cl` (stereo not shown) [Example 207, 4-Chloro-5-(1-(methoxymethyl)isoindolin-2-yl)pyridazin-3(2H)-one] came in with a 50% inhibitory concentration (IC50) of no less than 1000 nM.

With `CC1c2ccccc2CN1c1cn[nH]c(=O)c1Cl` (stereo not shown) [Example 208, 4-Chloro-5-(1-methylisoindolin-2-yl)pyridazin-3(2H)-one], the 50% inhibitory concentration (IC50) was no less than 1000 nM.

Turning to `NCCOc1cccc2c1CN(c1cn[nH]c(=O)c1C(F)(F)F)C2` [Example 209, 5-(4-(2-Aminoethoxy)isoindolin-2-yl)-4-(trifluoromethyl)pyridazin-3(2H)-one], the IC50 was less than 100 nM.

In turn, `CN1CCC(Oc2cccc3c2CN(c2cn[nH]c(=O)c2C(F)(F)F)C3)CC1` [Example 210, 5-(4-((1-Methylpiperidin-4-yl)oxy)isoindolin-2-yl)-4-(trifluoromethyl)pyridazin-3(2H)-one] displayed an IC50 of 100 to 1000 nM.

Molecule `CC(=O)NCCOc1cccc2c1CN(c1cn[nH]c(=O)c1C(F)(F)F)C2` [Example 211, N-(2-((2-(6-Oxo-5-(trifluoromethyl)-1,6-dihydropyridazin-4-yl)isoindolin-4-yl)oxy)ethyl)acetamide] came in with an IC50 of less than 100 nM.

The molecule `CN(C)CCOc1cccc2c1CN(c1cn[nH]c(=O)c1C(F)(F)F)C2` [Example 212, 5-(4-(2-(Dimethylamino)ethoxy)isoindolin-2-yl)-4-(trifluoromethyl)pyridazin-3(2H)-one] registered an IC50 of 100 to 1000 nM.

`O=c1[nH]ncc(N2Cc3cccc(OCCN4CCCCC4)c3C2)c1C(F)(F)F` [Example 213, 5-(4-(2-(Piperidin-1-yl)ethoxy)isoindolin-2-yl)-4-(trifluoromethyl)pyridazin-3(2H)-one] yielded a 50% inhibitory concentration (IC50) of 100 to 1000 nM.

`O=c1[nH]ncc(N2Cc3cccc(OCCN4CCOCC4)c3C2)c1C(F)(F)F` [Example 214, 5-(4-(2-Morpholinoethoxy)isoindolin-2-yl)-4-(trifluoromethyl)pyridazin-3(2H)-one] displayed a half-maximal inhibitory concentration (IC50) of less than 100 nM.

Regarding `CNc1cccc2c1CN(c1cn[nH]c(=O)c1C(F)(F)F)C2` [Example 215, 5-(4-(Methylamino)isoindolin-2-yl)-4-(trifluoromethyl)pyridazin-3(2H)-one], the 50% inhibitory concentration (IC50) was less than 100 nM.

Turning to `O=c1[nH]ncc(N2Cc3cccc(OCC4CCCCO4)c3C2)c1C(F)(F)F` (stereo not shown) [Example 216, 5-(4-((Tetrahydro-2H-pyran-2-yl)methoxy)isoindolin-2-yl)-4-(trifluoromethyl)pyridazin-3(2H)-one], the IC50 is less than 100 nM.

The molecule `CNCCOc1cccc2c1CN(c1cn[nH]c(=O)c1C(F)(F)F)C2` [Example 217, 5-(4-(2-(Methylamino)ethoxy)isoindolin-2-yl)-4-(trifluoromethyl)pyridazin-3(2H)-one] yielded a half-inhibitory concentration (IC50) of 100 to 1000 nM.

`O=c1[nH]ncc(N2Cc3ccc(OC4CCNC4)cc3C2)c1C(F)(F)F` (stereo not shown) [Example 218, 5-(5-(Pyrrolidin-3-yloxy)isoindolin-2-yl)-4-(trifluoromethyl)pyridazin-3(2H)-one] showed a half-inhibitory concentration (IC50) of less than 100 nM.

For the molecule `O=c1[nH]ncc(N2Cc3ccc(O)cc3C2)c1C(F)(F)F` [Example 219, 5-(5-Hydroxyisoindolin-2-yl)-4-(trifluoromethyl)pyridazin-3(2H)-one], the IC50 is less than 100 nM.

The molecule `O=c1[nH]ncc(N2Cc3cccc(OCCN4CCNCC4)c3C2)c1Cl` [Example 220, 4-Chloro-5-(4-(2-(piperazin-1-yl)ethoxy)isoindolin-2-yl)pyridazin-3(2H)-one] showed an IC50 of 100 to 1000 nM.

On to `NCc1cccc2c1CN(c1cn[nH]c(=O)c1C(F)(F)F)C2` [Example 221, 5-(4-(Aminomethyl)isoindolin-2-yl)-4-(trifluoromethyl)pyridazin-3(2H)-one], for which the IC50 is no less than 1000 nM.

In the case of `O=c1[nH]ncc(N2Cc3cccc(OC[C@H]4CCCO4)c3C2)c1C(F)(F)F` [Example 223, (R)-5-(4-((Tetrahydrofuran-2-yl)methoxy)isoindolin-2-yl)-4-(trifluoromethyl)pyridazin-3(2H)-one], the IC50 was less than 100 nM.

Molecule `CC(=O)N(C)CCOc1cccc2c1CN(c1cn[nH]c(=O)c1C(F)(F)F)C2` [Example 224, N-Methyl-N-(2-((2-(6-oxo-5-(trifluoromethyl)-1,6-dihydropyridazin-4-yl)isoindolin-4-yl)oxy)ethyl)acetamide] displayed an IC50 of less than 100 nM.

Regarding `CC(=O)N1CCC(Oc2cccc3c2CN(c2cn[nH]c(=O)c2C(F)(F)F)C3)CC1` [Example 225, 5-(4-((1-Acetylpiperidin-4-yl)oxy)isoindolin-2-yl)-4-(trifluoromethyl)pyridazin-3(2H)-one], the half-maximal inhibitory concentration (IC50) is less than 100 nM.

Take `CN1CCN(CCOc2cccc3c2CN(c2cn[nH]c(=O)c2C(F)(F)F)C3)CC1` [Example 226, 5-(4-(2-(4-Methylpiperazin-1-yl)ethoxy)isoindolin-2-yl)-4-(trifluoromethyl)pyridazin-3(2H)-one]: the IC50 is less than 100 nM.

Turning to `O=c1[nH]ncc(N2Cc3cccc(OCCN4CCNCC4)c3C2)c1C(F)(F)F` [Example 227, 5-(4-(2-(Piperazin-1-yl)ethoxy)isoindolin-2-yl)-4-(trifluoromethyl)pyridazin-3(2H)-one], the IC50 was less than 100 nM.

In the case of `CC(=O)N1CCN(CCOc2cccc3c2CN(c2cn[nH]c(=O)c2C(F)(F)F)C3)CC1` [Example 228, 5-(4-(2-(4-Acetylpiperazin-1-yl)ethoxy)isoindolin-2-yl)-4-(trifluoromethyl)pyridazin-3(2H)-one], the IC50 was less than 100 nM.

`COCCOc1ccc2c(c1)CN(c1cn[nH]c(=O)c1C(F)(F)F)C2` [Example 229, 5-(5-(2-Methoxyethoxy)isoindolin-2-yl)-4-(trifluoromethyl)pyridazin-3(2H)-one] registered an IC50 of less than 100 nM.

For `CC(=O)N1CCN(CCOc2cccc3c2CN(c2cn[nH]c(=O)c2Cl)C3)CC1` [Example 230, 5-(4-(2-(4-Acetylpiperazin-1-yl)ethoxy)isoindolin-2-yl)-4-chloropyridazin-3(2H)-one], the IC50 is 100 to 1000 nM.

On to `NCC1c2ccccc2CN1c1cn[nH]c(=O)c1Cl` (stereo not shown) [Example 231, 5-(1-(Aminomethyl)isoindolin-2-yl)-4-chloropyridazin-3(2H)-one], for which the concentration for half-maximal inhibition (IC50) was no less than 1000 nM.

Consider `O=c1[nH]ncc(N2Cc3cccc(Oc4ccncc4)c3C2)c1C(F)(F)F` [Example 232, 5-(4-(pyridin-4-yloxy)isoindolin-2-yl)-4-(trifluoromethyl)pyridazin-3(2H)-one trifluoroacetic acid], for which the IC50 is less than 100 nM.

`O=c1[nH]ncc(N2Cc3cccc(Oc4cccnc4)c3C2)c1C(F)(F)F` [Example 233, 5-(4-(Pyridin-3-yloxy)isoindolin-2-yl)-4-(trifluoromethyl)pyridazin-3(2H)-one]: the IC50 was less than 100 nM.

Consider `COc1cc2c(cc1F)CN(c1cn[nH]c(=O)c1C(F)(F)F)C2` [Example 234, 5-(5-Fluoro-6-methoxyisoindolin-2-yl)-4-(trifluoromethyl)pyridazin-3(2H)-one], for which the 50% inhibitory concentration (IC50) is less than 100 nM.

On to `O=c1[nH]ncc(N2Cc3ccccc3C2CO)c1C(F)(F)F` (stereo not shown) [Example 235, 5-(1-(Hydroxymethyl)isoindolin-2-yl)-4-(trifluoromethyl)pyridazin-3(2H)-one], for which the 50% inhibitory concentration (IC50) is no less than 1000 nM.

As for `O=c1[nH]ncc(N2Cc3cccnc3C2)c1C(F)(F)F` [Example 236, 5-(5,7-Dihydro-6H-pyrrolo[3,4-b]pyridin-6-yl)-4-(trifluoromethyl)pyridazin-3(2H)-one], the 50% inhibitory concentration (IC50) was less than 100 nM.

As for `CN1CCC(Oc2ccc3c(c2)CN(c2cn[nH]c(=O)c2C(F)(F)F)C3)C1` (stereo not shown) [Example 238, 5-(5-((1-Methylpyrrolidin-3-yl)oxy)isoindolin-2-yl)-4-(trifluoromethyl)pyridazin-3(2H)-one], the IC50 is less than 100 nM.

Regarding `COCC1c2ccccc2CN1c1cn[nH]c(=O)c1C(F)(F)F` (stereo not shown) [Example 239, 5-(1-(Methoxymethyl)isoindolin-2-yl)-4-(trifluoromethyl)pyridazin-3(2H)-one], the half-inhibitory concentration (IC50) is no less than 1000 nM.

Molecule `O=c1[nH]ncc(N2Cc3cccc(OCCN4CCOCC4)c3C2)c1Cl` [Example 240, 4-Chloro-5-(4-(2-morpholinoethoxy)isoindolin-2-yl)pyridazin-3(2H)-one] returned an IC50 of 100 to 1000 nM.

`CC(=O)NCCOc1cccc2c1CN(c1cn[nH]c(=O)c1Cl)C2` [Example 241, N-(2-((2-(5-Chloro-6-oxo-1,6-dihydropyridazin-4-yl)isoindolin-4-yl)oxy)ethyl)acetamide] had a half-inhibitory concentration (IC50) of 100 to 1000 nM.

In the case of `O=c1[nH]ncc(N2Cc3cccc(OC4CCNC4)c3C2)c1Cl` (stereo not shown) [Example 242, 4-Chloro-5-(4-(pyrrolidin-3-yloxy)isoindolin-2-yl)pyridazin-3(2H)-one], the IC50 fell in the range of 100 to 1000 nM.

`CC(C)c1c(N2Cc3cccc(OCCO)c3C2)cn[nH]c1=O` [Example 243, 5-(4-(2-Hydroxyethoxy)isoindolin-2-yl)-4-isopropylpyridazin-3(2H)-one] had a concentration for half-maximal inhibition (IC50) of no less than 1000 nM.

The record behind these values is patent publication US10550105B2 (Ribon Therapeutics Inc., priority 2018, dated 2020).
